The source of these data is patent US7875621B2, “Substituted 2-alkyl quinazolinone derivatives as PARP inhibitors” (Janssen Pharmaceutica NV, priority 2004, dated 2011).

The test system of assay [1] is infarct size in the heart. The settings on record: rabbits, cited from earlier work.
The subject of the next assay is colitis. The settings on record: rats, colitis by intraluminal trinitrobenzene sulfonic acid in 50% ethanol; cited from earlier work.
A further assay deals with T1, TANK-2 enzyme (Homo sapiens, UniProt Q9H2K2).
T1 construct: inferred from capture on Ni-coated flash plate; made in house
T1 sequence (Q9H2K2 1-1166): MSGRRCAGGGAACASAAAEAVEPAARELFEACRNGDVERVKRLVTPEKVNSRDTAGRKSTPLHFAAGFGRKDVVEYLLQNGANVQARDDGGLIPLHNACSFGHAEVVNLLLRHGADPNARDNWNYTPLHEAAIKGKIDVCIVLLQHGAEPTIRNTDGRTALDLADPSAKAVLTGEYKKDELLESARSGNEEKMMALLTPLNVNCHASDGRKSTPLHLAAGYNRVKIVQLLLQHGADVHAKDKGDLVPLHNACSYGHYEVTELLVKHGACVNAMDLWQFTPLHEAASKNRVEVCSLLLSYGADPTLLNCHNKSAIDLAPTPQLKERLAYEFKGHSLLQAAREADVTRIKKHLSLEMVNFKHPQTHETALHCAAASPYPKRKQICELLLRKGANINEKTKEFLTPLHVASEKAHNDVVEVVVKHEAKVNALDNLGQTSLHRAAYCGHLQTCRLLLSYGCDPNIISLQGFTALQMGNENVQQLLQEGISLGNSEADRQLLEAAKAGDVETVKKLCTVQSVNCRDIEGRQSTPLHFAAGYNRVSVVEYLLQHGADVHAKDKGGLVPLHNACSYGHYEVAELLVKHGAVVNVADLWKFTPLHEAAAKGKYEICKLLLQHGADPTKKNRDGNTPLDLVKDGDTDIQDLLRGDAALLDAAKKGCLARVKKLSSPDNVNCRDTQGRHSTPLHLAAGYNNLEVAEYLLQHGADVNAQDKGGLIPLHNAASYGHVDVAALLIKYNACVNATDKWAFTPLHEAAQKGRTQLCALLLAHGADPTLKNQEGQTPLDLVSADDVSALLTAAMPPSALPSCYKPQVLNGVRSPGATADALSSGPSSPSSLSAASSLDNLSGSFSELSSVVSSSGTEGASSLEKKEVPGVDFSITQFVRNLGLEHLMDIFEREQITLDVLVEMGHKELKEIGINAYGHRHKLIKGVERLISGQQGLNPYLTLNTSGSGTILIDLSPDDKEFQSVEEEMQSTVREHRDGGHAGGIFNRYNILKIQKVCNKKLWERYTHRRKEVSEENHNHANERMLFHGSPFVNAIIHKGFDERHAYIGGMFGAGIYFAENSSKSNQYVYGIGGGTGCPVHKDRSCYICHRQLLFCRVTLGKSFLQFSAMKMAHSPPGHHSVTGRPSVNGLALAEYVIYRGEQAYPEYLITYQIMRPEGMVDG
As to the kind of experiment: In vitro scintillation proximity assay (SPA) for TANK-2 inhibitory activity. Format: biochemical. The settings on record: auto-poly(ADP-ribosyl)ation, [3H]-NAD+, 96- or 384-well Ni Flash plates; read-out: in vitro SPA TANK-2 pIC50 (converted). On the procedure:
In Vitro Scintillation Proximity Assay (SPA) for TANK-2 Inhibitory Activity
Compounds of the present invention were tested in an in vitro assay based on SPA technology with Ni Flash plates (96 or 384 well).
In principle, the assay relies upon SPA technology for the detection of auto-poly(ADP-ribosyl)ation of TANK-2 protein using [^3H]-nicotinamide adenine dinucleotide ([^3H]-NAD^+) as ADP-ribosyl donor.
A stock solution of [^3H]-NAD^+/NAD was made by adding 64.6 μl of [^3H]-NAD^+ (0.1 mCi/ml, supplier: Perkin Elmer) and 46.7 μl NAD-stock (10.7 mM, stored at −20° C., supplier Roche) to 1888.7 μl assay buffer (60 mM Tris/HCl, pH 7.4; 0.9 mM DTT; 6 mM MgCl2). The TANK-2 enzyme was produced as described in EP1238063. 60 μl of assay buffer, together with 1 μl of compound in DMSO, 20 μl of [^3H]-NAD^+/NAD and 20 μl of TANK-2 enzyme (final concentration 6 μg/ml) was added per well into a 96-well Ni-coated flash plate (Perkin Elmer). After incubation of the mixture for 120 min. at room temperature, the reaction was terminated by adding 60 μl of stopsolution (42.6 mg NAD in 6 ml H2O). The plates were covered with a plate sealer and placed in a TopCountNXT™ (Packard) for scintillation counting. Values were expressed as counts per minute (cpm). For each experiment, controls (containing TANK-2 enzyme and DMSO without compound), a blank incubation (containing DMSO but no TANK-2 enzyme or compound) and samples (containing TANK-2 enzyme and compound dissolved in DMSO) were run in parallel. All compounds tested were dissolved and eventually further diluted in DMSO. In first instance, compounds were tested at a concentration of 10^−5M. […] In each test, the blank value was subtracted from both the control and the sample values. The control sample represented maximal TANK-2 enzyme activity. For each sample, the amount of cpm was expressed as a percentage of the mean cpm value of the controls. When appropriate, IC50-values (concentration of the drug, needed to reduce the TANK-2 enzyme activity to 50% of the control) were computed using linear interpolation between the experimental points just above and below the 50% level. Herein the effects of test compounds are expressed as pIC50 (the negative log value of the IC50-value). As reference compounds, 3-aminobenzamide and 4-amino-1,8-naphtalimide were included to validate the SPA assay. Herein the assay was described using 96-well plates. In the assay using 384-well plates the same final concentrations were used and volumes were adapted.

Structures are written as SMILES.

As for `Oc1cccc2c(O)nccc12` [1,5-dihydroxyisoquinoline], in assay [1] (single injection 1 mg/kg), the “reduction in infarct size” value is 38-48%.

For the compound `NC(=O)c1cccc(N)c1` [3-amino-benzamide], in assay [1] (single injection 10 mg/kg, one minute before occlusion or before reperfusion), the “reduction in infarct size in the heart” value is 32-42%. For the same compound, the “effect on inflammatory response and distal colon” value in the assay on colitis is given as “reduced the inflammatory response”.

With `O=C1NC(CCN2CCC(C(=O)c3ccc(F)cc3)CC2)Nc2ccccc21` (stereo not shown) [Compound 1], the IC50 at TANK-2 enzyme is over 10 µM.
